{
  "source": "patent US6699868B2",
  "about": "“Pyridazinyl phenyl hydrazones useful against congestive heart failure” (Orion Corporation, priority 2000, dated 2004)",
  "data": [
    {"units": {"melting point": "°C"}, "values": [
      {"smiles": "CC1CC(=O)NN=C1c1ccc(NN=Cc2c([N+](=O)[O-])cccc2[N+](=O)[O-])cc1", "note": "(centres unmarked)", "melting point": "216 to 218"},
      {"smiles": "CC1CC(=O)NN=C1c1ccc(NN=Cc2ccc([N+](=O)[O-])cc2[N+](=O)[O-])cc1", "note": "(centres unmarked)", "melting point": "278 to 280"},
      {"smiles": "CCOC(=O)c1c(O)ccc(C(=NN)c2ccc(C3=NNC(=O)CC3C)cc2)c1O", "note": "(centres unmarked) [Example 3, 2,6-Dihydroxy-3-{[4-(4-methyl-6-oxo-1,4,5,6-tetrahydro-pyridazin-3-yl)-phenyl]-hydrazonomethyl}-benzoic acid Ethyl Ester]", "melting point": "203 to 208"},
      {"smiles": "CC1CC(=O)NN=C1c1ccc(NN=Cc2cc([N+](=O)[O-])ccc2O)cc1", "note": "(centres unmarked) [Example 5, 6-{4-[N′-(2-Hydroxy-5-nitro-benzylidene)-hydrazino]-phenyl}-5-methyl-4,5-dihydro-2H-pyridazin-3-one]", "melting point": "299 to 300"},
      {"smiles": "CC1CC(=O)NN=C1c1ccc(NN=Cc2cccc(O)c2O)cc1", "note": "(centres unmarked) [Example 7, 6-{4-[N′-(2,3-Dihydroxy-benzylidene)-hydrazino]-phenyl}-5-methyl-4,5-dihydro-2H-pyridazin-3-one]", "melting point": "245 to 247"},
      {"smiles": "CC1CC(=O)NN=C1c1ccc(NN=Cc2cc(O)ccc2O)cc1", "note": "(centres unmarked) [Example 8, 6-{4-[N′-(2,5-Dihydroxy-benzylidene)-hydrazino]-phenyl}-5-methyl-4,5-dihydro-2H-pyridazin-3-one]", "melting point": "317 to 320"},
      {"smiles": "CC1CC(=O)NN=C1c1ccc(NN=Cc2ccc(O)c(O)c2[N+](=O)[O-])cc1", "note": "(centres unmarked) [Example 9, 6-{4-[N′-(3,4-Dihydroxy-2-nitro-benzylidene)-hydrazino]-phenyl}-5-methyl-4,5-dihydro-2H-pyridazin-3-one]", "melting point": "239 to 241"},
      {"smiles": "CC1CC(=O)NN=C1c1ccc(C(=NN)c2ccccc2C(=O)O)cc1", "note": "(centres unmarked) [Example 10, 2-{[4-(4-Methyl-6-oxo-1,4,5,6-tetrahydro-pyridazin-3-yl)-phenyl]-hydrazonomethyl}-benzoic acid]", "melting point": "250 to 251"},
      {"smiles": "CC1CC(=O)NN=C1c1ccc(NN=Cc2ccccc2C(F)(F)F)cc1", "note": "(centres unmarked) [Example 11, 6-{4-[N′-(2-trifluoromethyl-benzylidene)-hydrazino]-phenyl}-5-methyl-4,5-dihydro-2H-pyridazin-3-one]", "melting point": "113 to 115"},
      {"smiles": "COc1c(OC(C)=O)ccc(C(=NN)c2ccc(C3=NNC(=O)CC3C)cc2)c1[N+](=O)[O-]", "note": "(centres unmarked) [Example 12, Acetic acid 2-Methoxy-4-{[4-(4-methyl-6-oxo-1,4,5,6-tetrahydro-pyridazin-3-yl)-phenyl]-hydrazonomethyl}-3-nitro-phenyl ester]", "melting point": "220 to 223"},
      {"smiles": "CC(=NNc1ccc(C2=NNC(=O)CC2C)cc1)c1cc(O)cc(O)c1", "note": "(centres unmarked) [Example 13, 6-(4-{N′-[1-(3,5-Dihydroxy-phenyl)-ethylidene]-hydrazino}-phenyl)-5-methyl-4,5-dihydro-2H-pyridazin-3-one]", "melting point": "162 to 166"},
      {"smiles": "COc1ccc(CCC(=NNc2ccc(C3=NNC(=O)CC3C)cc2)c2ccc(O)cc2O)cc1OC", "note": "(centres unmarked) [Example 14, 6-(4-{N′-[1-(2,4-Dihydroxy-phenyl)-3-(3,4-dimethoxy-phenyl)-propylidene]-hydrazino}-phenyl)-5-methyl-4,5-dihydro-2H-pyridazin-3-one]", "melting point": "135 to 140"},
      {"smiles": "O=c1[nH]nc(-c2ccc(NN=C(c3ccccc3)c3ccc(O)cc3O)cc2)c2ccccc12", "note": "[Example 15, 4-(4-{N′-[(2,4-Dihydroxy-phenyl)-phenyl-methylene]-hydrazino}-phenyl)-2H-phthalazin-1-one]", "melting point": "160 to 170"},
      {"smiles": "O=c1[nH]nc(-c2ccc(NN=C(c3ccc(O)cc3)c3ccc(O)cc3O)cc2)c2ccccc12", "note": "[Example 16, 4-(4-{N′-[(2,4-Dihydroxy-phenyl)-(4-hydroxy-phenyl)-methylene]-hydrazino}-phenyl)-2H-phthalazin-1-one]", "melting point": "150 to 160"},
      {"smiles": "O=c1[nH]nc(-c2ccc(NN=C(c3ccc(O)cc3O)c3ccc(O)cc3O)cc2)c2ccccc12", "note": "[Example 17, 4-(4-{N′-[Bis-(2,4-dihydroxy-phenyl)-methylene]-hydrazino}-phenyl)-2H-phthalazin-1-one]", "melting point": "140 to 146"},
      {"smiles": "O=c1[nH]nc(-c2ccc(NN=Cc3ccc(O)cc3O)cc2)c2ccccc12", "note": "[Example 18, 4-{4-[N′-(2,4-Dihydroxy-benzylidene)-hydrazino]-phenyl}-2H-phthalazin-1-one]", "melting point": "278 to 283"},
      {"smiles": "CC1CC(=O)NN=C1c1ccc(NN=Cc2ccc(S(C)(=O)=O)cc2)cc1", "note": "(centres unmarked) [Example 19, 6-{4-[N′-(4-Methanesulfonylbenzylidene)hydrazino]phenyl}-5-methyl-4,5-dihydro-2H-pyridazin-3-one]", "melting point": "130 to 137"},
      {"smiles": "CC1CC(=O)NN=C1c1ccc(C(=NN)c2cccc(C#N)c2)cc1", "note": "(centres unmarked) [Example 20, 3-{[4-(4-Methyl-6-oxo-1,4,5,6-tetrahydropyridazin-3-yl)phenyl]-hydrazonomethyl}-benzonitrile]", "melting point": "220 to 224"},
      {"smiles": "COc1c(O)ccc(C=NNc2ccc(-c3n[nH]c(=O)cc3C)cc2)c1[N+](=O)[O-]", "note": "[Example 22, 6-{4-[N′-(4-Hydroxy-3-methoxy-2-nitrobenzylidene)hydrazino]phenyl}-5-methyl-2H-pyridazin-3-one]", "melting point": "264 to 268"},
      {"smiles": "Cn1nc(-c2ccc(NN=Cc3ccc(O)cc3O)cc2)ccc1=O", "note": "[Example 25, 6-{4-[N′-(2,4-Dihydroxybenzylidene)hydrazino]phenyl}-2-methyl-2H-pyridazin-3-one]", "melting point": "304 to 306"},
      {"smiles": "CCC(=NNc1ccc(-c2ccc(=O)n(C)n2)cc1)c1ccc(O)cc1O", "note": "[Example 27, 6-{4-{N′-[1-(2,4-Dihydroxyphenyl)propylidene]hydrazino}phenyl}-2-methyl-2H-pyridazin-3-one]", "melting point": "225 to 233"},
      {"smiles": "CCc1c(O)ccc(C=NNc2ccc(-c3ccc(=O)n(C)n3)cc2)c1O", "note": "[Example 28, 6-{4-[N′-(2,4-Dihydroxy-3-ethylbenzylidene)hydrazino]phenyl}-2-methyl-2H-pyridazin-3-one]", "melting point": "262 to 266"},
      {"smiles": "Cn1nc(-c2ccc(NN=C(CCC(=O)O)c3ccc(O)cc3O)cc2)ccc1=O", "note": "[Example 29, 4-(2,4-Dihydroxyphenyl)-4-{[4-(1-methyl-6-oxo-1,6-dihydropyridazin-3-yl)phenyl]hydrazono}butyric acid]", "melting point": "138 to 141"},
      {"smiles": "CCC1CC(=O)NN=C1c1ccc(NN=Cc2ccc(O)cc2O)cc1", "note": "(centres unmarked) [Example 36, 6-{4-[N′-(2,4-Dihydroxy-benzylidene)-hydrazino]-phenyl}-5-ethyl-4,5-dihydro-2H-pyridazin-3-one]", "melting point": "270 to 275"},
      {"smiles": "CC(=O)c1c(O)ccc(C=NNc2ccc(C3=NNC(=O)CC3C)cc2)c1O", "note": "(centres unmarked) [Example 39, 6-{4-[N′-(3-Acetyl-2,4-dihydroxy-benzylidene)-hydrazino]-phenyl}-5-methyl-4,5-dihydro-2H-pyridazin-3-one]", "melting point": "268 to 270"},
      {"smiles": "CC(=O)Nc1ccc(C(=NN)c2ccc(C3=NNC(=O)CC3C)cc2)c(O)c1", "note": "(centres unmarked) [Example 41, N-(3-Hydroxy-4-{[4-(4-methyl-6-oxo-1,4,5,6-tetrahydro-pyridazin-3-yl)-phenyl]-hydrazonomethyl}-phenyl)-acetamide]", "melting point": "269 to 275"},
      {"smiles": "CC1CC(=O)NN=C1c1ccc(NN=Cc2ccc(Cl)cc2Cl)cc1", "note": "(centres unmarked) [Example 42, 6-{4-[N′-(2,4-Dichloro-benzylidene)-hydrazino]-phenyl}-5-methyl-4,5-dihydro-2H-pyridazin-3-one]", "melting point": "252 to 254"},
      {"smiles": "CCCCc1c(O)ccc(C=NNc2ccc(C3=NNC(=O)CC3C)cc2)c1O", "note": "(centres unmarked) [Example 44, 6-{4-[N′-(3-Butyl-2,4-dihydroxy-benzylidene)-hydrazino]-phenyl}-5-methyl-4,5-dihydro-2H-pyridazin-3-one]", "melting point": 218},
      {"smiles": "CC1CC(=O)NN=C1c1ccc(NN=Cc2ccc([N+](=O)[O-])cc2)cc1", "note": "(centres unmarked) [Example 52, 6-{4-[N′-(4-nitrobenzylidene)-hydrazino]-phenyl}-5-methyl-4,5-dihydro-2H-pyridazin-3-one]", "melting point": "216 to 217"},
      {"smiles": "COc1ccccc1C=NNc1ccc(C2=NNC(=O)CC2C)cc1", "note": "(centres unmarked) [Example 53, 6-{4-[N′-(2-Methoxy-benzylidene)-hydrazino]-phenyl}-5-methyl-4,5-dihydro-2H-pyridazin-3-one]", "melting point": "180 to 183"},
      {"smiles": "CC1CC(=O)NN=C1c1ccc(NN=Cc2ccccc2O)cc1", "note": "(centres unmarked) [Example 54, 6-{4-[N′-(2-Hydroxy-benzylidene)-hydrazino]-phenyl}-5-methyl-4,5-dihydro-2H-pyridazin-3-one]", "melting point": "265 to 268"},
      {"smiles": "COc1ccc(C=NNc2ccc(C3=NNC(=O)CC3C)cc2)cc1", "note": "(centres unmarked) [Example 55, 6-{4-[N′-(4-Methoxy-benzylidene)-hydrazino]-phenyl}-5-methyl-4,5-dihydro-2H-pyridazin-3-one]", "melting point": "172 to 174"},
      {"smiles": "CC1CC(=O)NN=C1c1ccc(C(=NN)c2ccc(O)c(C(=O)O)c2O)cc1", "note": "(centres unmarked) [Example 56, 2,6-Dihydroxy-3-{[4-(4-methyl-6-oxo-1,4,5,6-tetrahydro-pyridazin-3-yl)-phenyl]-hydrazonomethyl}-benzoic acid]", "melting point": "215 to 218"},
      {"smiles": "COc1cccc(C=NNc2ccc(C3=NNC(=O)CC3C)cc2)c1O", "note": "(centres unmarked) [Example 57, 6-{4-[N′-(2-Hydroxy-3-methoxy-benzylidene)-hydrazino]-phenyl}-5-methyl-4,5-dihydro-2H-pyridazin-3-one]", "melting point": "210 to 213"},
      {"smiles": "CC1CC(=O)NN=C1c1ccc(NN=Cc2ccccc2[N+](=O)[O-])cc1", "note": "(centres unmarked) [Example 58, 6-{4-[N′-(2-nitro-benzylidene)-hydrazino]-phenyl}-5-methyl-4,5-dihydro-2H-pyridazin-3-one]", "melting point": "250 to 253"},
      {"smiles": "CC1CC(=O)NN=C1c1ccc(C(=NN)c2ccc(C#N)cc2)cc1", "note": "(centres unmarked) [Example 60, 4-{[4-(4-Methyl-6-oxo-1,4,5,6-tetrahydro-pyridazin-3-yl)-phenyl]-hydrazonomethyl}-benzonitrile]", "melting point": "246 to 248"},
      {"smiles": "CC1CC(=O)NN=C1c1ccc(NN=Cc2ccc(O)cc2)cc1", "note": "(centres unmarked) [Example 61, 6-{4-[N′-(4-Hydroxy-benzylidene)-hydrazino]-phenyl}-5-methyl-4,5-dihydro-2H-pyridazin-3-one]", "melting point": "258 to 261"},
      {"smiles": "CC1CC(=O)NN=C1c1ccc(NN=Cc2cccc(O)c2)cc1", "note": "(centres unmarked) [Example 62, 6-{4-[N′-(3-Hydroxy-benzylidene)-hydrazino]-phenyl}-5-methyl-4,5-dihydro-2H-pyridazin-3-one]", "melting point": "267 to 270"}
    ]}
  ]
}
